Source: PMC7083565, “In vitro metabolism, reaction phenotyping, enzyme kinetics, CYP inhibition and induction potential of ataluren” (Pharmacology Research & Perspectives, 2020)

What was measured:
Type in all cases: in vitro ADME
CYP2C9 = target: T1, CYP2C9 (Homo sapiens, UniProt P11712); test: CYP inhibition in pooled human liver microsomes: CYP2C9
T1 construct: tissue XenoTech LLC, Celsis-In Vitro Technologies, or Tissue Transformation Technologies; host or cells: pooled human liver microsomes
T1 sequence (P11712 whole entry): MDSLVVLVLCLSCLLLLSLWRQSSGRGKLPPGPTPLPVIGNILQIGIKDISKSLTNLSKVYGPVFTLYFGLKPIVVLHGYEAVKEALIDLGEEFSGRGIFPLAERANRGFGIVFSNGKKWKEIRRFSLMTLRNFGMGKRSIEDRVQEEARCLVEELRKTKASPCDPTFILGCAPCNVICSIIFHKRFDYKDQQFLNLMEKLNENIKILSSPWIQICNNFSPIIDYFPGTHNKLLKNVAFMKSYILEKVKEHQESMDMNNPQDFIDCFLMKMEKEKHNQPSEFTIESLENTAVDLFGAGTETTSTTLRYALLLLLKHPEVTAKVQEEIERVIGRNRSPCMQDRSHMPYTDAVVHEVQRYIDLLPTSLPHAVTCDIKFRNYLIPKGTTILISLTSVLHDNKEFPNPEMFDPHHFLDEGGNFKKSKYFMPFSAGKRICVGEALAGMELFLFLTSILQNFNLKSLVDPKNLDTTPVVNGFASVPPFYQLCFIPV
Procedure: The final concentration of each probe substrate was near the experimentally determined Km value for the indicated enzyme. Ataluren or prototypical CYP inhibitors (positive controls) was incubated (n = 3) with probe substrates and HLM in 100 mmol/L phosphate buffer (pH 7.4) in a total volume of approximately 0.25 mL, and the reactions were initiated by the addition of 1 mmol/L NADPH at 37°C. The reactions were carried out using previously established conditions to ensure linearity with respect to protein concentration and incubation time (Table S1). Incubations were stopped with the addition of ice‐cold acetonitrile. Metabolite formation in incubations with test compound and control inhibitors was assessed with LC‐MS/MS methods for each of the reaction products as described in Table S2. […] After 7 minutes incubation at 37°C, the reaction was stopped by the addition of ice‐cold acetonitrile, followed by membrane plate filtration. The filtrates were used for LC‐MS/MS analysis. Enzyme activity remaining at each nonzero ataluren concentration after incubation was normalized against control sample (zero ataluren concentration, enzyme activity = 100%), and the % remaining enzyme activity values were used for IC50 calculation. IC50 values were determined by nonlinear regression with GraphPad Prism 5 using the following four‐parameter sigmoidal‐logistic IC50 equation: Fit=background+range-background/[1+I/IC50^slope]
Where, I is the inhibitor concentration, and background was set to 0 and range to 100, as percent of control values are utilized. K i was determined by nonlinear regression with GraphPad Prism 5 using best fit model.

CYP2E1 = test: CYP induction in primary human hepatocytes: CYP2E1; conditions: male, 48 h, 4 µM
Procedure: Human hepatocytes isolated from three Caucasian males were transferred to 48‐well collagen‐coated plates at 0.14 × 10^6 cells/well in planting media for attachment. After attachment, planting media was replaced with sandwich media and the cells were incubated until clusters were established. […] The incubation solutions were aspirated and replaced with freshly prepared incubation solutions containing ataluren for an additional 24 hours. […] The incubation solutions were then aspirated and 150 µL of K‐H buffer containing CYP substrates were added. […] Metabolite formation in incubations with test compounds and control inhibitors was assessed with validated LC‐MS/MS methods for each of the reaction products as described in Table S2. Enzymatic activity for each CYP was calculated using the absolute amount of metabolite formed (pmol) divided by hepatocytes in the incubation (million cells) and the incubation time (minute). The relative fold induction in enzymatic activity was calculated by comparing the rate of metabolite formation for treatment groups to that of the solvent control group (reported as vehicle control%) or positive control group (reported as positive control%).

[1] = Incubation with 16 individual human liver microsomes (correlation analysis); conditions: 60 minutes, n = 2
Procedure: Ataluren at a concentration of 10 μmol/L, was incubated (n = 2) with 16 individual HLM at 0.5 mg protein concentration/mL for 0 and 60 minutes at 37°C. Enzyme activities for UGTs 1A1, 1A4, 1A6, 1A9, and 2B7 were precharacterized under optimized conditions by the vendor. Incubation mixtures and procedures were essentially the same as the above. The supernatant fractions were analyzed by LC‐MS/MS to quantify the formation of ataluren‐O‐1β‐acyl glucuronide and the loss of ataluren, and the enzyme activities were correlated with precharacterized UGT enzyme activities. Detailed LC‐MS/MS conditions are summarized in LC‐MS/MS Analysis section. […] The ataluren acyl glucuronide formation rate after 60 minutes incubation was calculated using the amount of metabolite formed (pmol) divided by the protein amount in the incubation sample ([…]) and the incubation time (60 minutes). […]
Quantification of ataluren loss and ataluren‐O‐1β‐acyl glucuronide formation was carried out with an LC‐MS/MS system, which consisted of two Shimadzu LC‐10ADvp pumps, a SPD10‐AVP UV/Vis detector, a Shimadzu SILHTA autosampler, a Shimadzu DGU‐14A degasser, and a Sciex API 4000 QTRAP mass spectrometer equipped with a Turbo Ionspray ionization source that operated in positive ionization mode. […]

O=C(O)c1cccc(-c2noc(-c3ccccc3F)n2)c1 [ataluren, Ataluren]
Ki (CYP2C9; CYP2C9, competitive, mean ± SE, n = 3): 75.4 ± 4.42 µM
mechanism of inhibition (CYP2C9; CYP2C9, tolbutamide methyl hydroxylase): competitive inhibitor
IC50 (CYP2C9; Diclofenac 4′-hydroxylase, pooled HLM, n=3, (95% confidence interval)): 135 µM
IC50 (CYP2C9; human, pooled human liver microsomes, pH 7.4, CYP2C9, HLM): 134 µM
Vehicle control %, Mean (CYP2E1): 99.0%
Rate, Loss of ataluren ([1]; individual HLM sample H0273, 10 μmol/L): 111 pmol/mg/min
Rate, Loss of ataluren ([1]; individual HLM sample H0295, 10 μmol/L): 134 pmol/mg/min
